Measured values taken from ChEMBL document CHEMBL3875216, “Synthesis of antimicrobial glucosamides as bacterial quorum sensing mechanism inhibitors” (Bioorg Med Chem, 2017).

Key:
[1] = system: Pseudomonas aeruginosa; experiment: Inhibition of LasR-dependent quorum sensing activity in Pseudomonas aeruginosa MH602 harboring GFP-fused […] LasB promoter assessed as inhibition of 3-oxo-dodecanoyl HSL-induced GFP expression at 2 mM measured after 24 hrs by fluorescence assay relative to control
[2] = system: Pseudomonas aeruginosa; experiment: Inhibition of LasR-dependent quorum sensing activity in Pseudomonas aeruginosa MH602 harboring GFP-fused […] LasB promoter assessed as inhibition of 3-oxo-dodecanoyl HSL-induced GFP expression at 1 mM measured after 8 hrs by fluorescence assay relative to control
[3] = system: Pseudomonas aeruginosa; experiment: Inhibition of LasR-dependent quorum sensing activity in Pseudomonas aeruginosa MH602 harboring GFP-fused […] LasB promoter assessed as inhibition of 3-oxo-dodecanoyl HSL-induced GFP expression at 1 mM measured after 24 hrs by fluorescence assay relative to control
[4] = system: Pseudomonas aeruginosa; experiment: Inhibition of LasR-dependent quorum sensing activity in Pseudomonas aeruginosa MH602 harboring GFP-fused […] LasB promoter assessed as inhibition of 3-oxo-dodecanoyl HSL-induced GFP expression at 500 uM measured after 24 hrs by fluorescence assay relative to control
[5] = system: Escherichia coli; experiment: Inhibition of LuxR-dependent quorum sensing activity in Escherichia coli MT102 harboring pJBA132 assessed as inhibition of OHHL-induced GFP expression at 2 mM measured after 8 hrs by fluorescence assay relative to control
[6] = system: Escherichia coli; experiment: Inhibition of LuxR-dependent quorum sensing activity in Escherichia coli MT102 harboring pJBA132 assessed as inhibition of OHHL-induced GFP expression at 2 mM measured after 24 hrs by fluorescence assay relative to control
[7] = system: Escherichia coli; experiment: Inhibition of LuxR-dependent quorum sensing activity in Escherichia coli MT102 harboring pJBA132 assessed as inhibition of OHHL-induced GFP expression at 1 mM measured after 8 hrs by fluorescence assay relative to control
[8] = system: Escherichia coli; experiment: Inhibition of LuxR-dependent quorum sensing activity in Escherichia coli MT102 harboring pJBA132 assessed as inhibition of OHHL-induced GFP expression at 1 mM measured after 24 hrs by fluorescence assay relative to control
[9] = system: Escherichia coli; experiment: Inhibition of LuxR-dependent quorum sensing activity in Escherichia coli MT102 harboring pJBA132 assessed as inhibition of OHHL-induced GFP expression at 500 uM measured after 8 hrs by fluorescence assay relative to control
[10] = system: Pseudomonas aeruginosa; experiment: Growth inhibition of Pseudomonas aeruginosa MH602 at 2 mM after 8 hrs relative to control; conditions: MH602, 8 h, read-out: GI
[11] = system: Pseudomonas aeruginosa; experiment: Growth inhibition of Pseudomonas aeruginosa MH602 at 2 mM after 24 hrs relative to control; conditions: MH602, 24 h, read-out: GI
[12] = system: Pseudomonas aeruginosa; experiment: Growth inhibition of Pseudomonas aeruginosa MH602 at 1 mM after 8 hrs relative to control; conditions: MH602, 8 h, read-out: GI
[13] = system: Pseudomonas aeruginosa; experiment: Growth inhibition of Pseudomonas aeruginosa MH602 at 1 mM after 24 hrs relative to control; conditions: MH602, 24 h, read-out: GI
[14] = system: Pseudomonas aeruginosa; experiment: Growth inhibition of Pseudomonas aeruginosa MH602 at 500 uM after 8 hrs relative to control; conditions: MH602, 8 h, read-out: GI
[15] = system: Pseudomonas aeruginosa; experiment: Growth inhibition of Pseudomonas aeruginosa MH602 at 500 uM after 24 hrs relative to control; conditions: MH602, 24 h, read-out: GI
[16] = system: Escherichia coli; experiment: Growth inhibition of Escherichia coli MT102 at 2 mM after 8 hrs relative to control; conditions: MT102, 8 h, read-out: GI
[17] = system: Escherichia coli; experiment: Growth inhibition of Escherichia coli MT102 at 2 mM after 24 hrs relative to control; conditions: MT102, 24 h, read-out: GI
[18] = system: Escherichia coli; experiment: Growth inhibition of Escherichia coli MT102 at 1 mM after 8 hrs relative to control; conditions: MT102, 8 h, read-out: GI
[19] = system: Escherichia coli; experiment: Growth inhibition of Escherichia coli MT102 at 1 mM after 24 hrs relative to control; conditions: MT102, 24 h, read-out: GI
[20] = system: Escherichia coli; experiment: Growth inhibition of Escherichia coli MT102 at 500 uM after 8 hrs relative to control; conditions: MT102, 8 h, read-out: GI
[21] = system: Escherichia coli; experiment: Growth inhibition of Escherichia coli MT102 at 500 uM after 24 hrs relative to control; conditions: MT102, 24 h, read-out: GI
[22] = system: Pseudomonas aeruginosa PA14; experiment: Inhibition of quorum sensing-regulated pyocyanin production in Pseudomonas aeruginosa PA14 at 2 mM after 24 hrs relative to control
[23] = system: Pseudomonas aeruginosa; experiment: Growth inhibition of Pseudomonas aeruginosa PA14 at 2 mM after 24 hrs relative to control; conditions: 2000 µM
[24] = system: Pseudomonas aeruginosa PA14; experiment: Inhibition of quorum sensing-regulated biofilm formation in Pseudomonas aeruginosa PA14 at 2 mM after overnight incubation by crystal violet staining based assay relative to control
[25] = system: Pseudomonas aeruginosa; experiment: Inhibition of LasR-dependent quorum sensing activity in Pseudomonas aeruginosa MH602 harboring GFP-fused […] LasB promoter assessed as inhibition of 3-oxo-dodecanoyl HSL-induced GFP expression at 2 mM measured after 8 hrs by fluorescence assay relative to control
[26] = system: Pseudomonas aeruginosa; experiment: Inhibition of LasR-dependent quorum sensing activity in Pseudomonas aeruginosa MH602 harboring GFP-fused […] LasB promoter assessed as inhibition of 3-oxo-dodecanoyl HSL-induced GFP expression at 500 uM measured after 8 hrs by fluorescence assay relative to control
[27] = system: Escherichia coli; experiment: Inhibition of LuxR-dependent quorum sensing activity in Escherichia coli MT102 harboring pJBA132 assessed as inhibition of OHHL-induced GFP expression at 500 uM measured after 24 hrs by fluorescence assay relative to control

SMILES | inhibition [1] | inhibition [2] | inhibition [4] | inhibition [5] | inhibition [6] | inhibition [7] | inhibition [8] | inhibition at 2000 µM [10] | inhibition at 2000 µM [11] | inhibition at 1000 µM [12] | inhibition at 1000 µM [13] | inhibition at 500 µM [14] | inhibition at 500 µM [15] | inhibition at 2000 µM [16] | inhibition at 2000 µM [17] | inhibition at 1000 µM [18] | inhibition at 1000 µM [19] | inhibition at 500 µM [20] | inhibition at 500 µM [21] | growth inhibition (GI) [23] | further results
O=C(Cc1ccc(Cl)cc1)N[C@@H]1[C@@H](O)[C@H](O)[C@@H](CO)O[C@H]1O | 8.7% | 3.4% | 7% | 4.3% | 2.8% | 2% | 4.6% | 0% | 0% | 0% | 0% | 1.3% | 0% | 0% | 4.5% | 0% | 7.4% | 0% | 11.2% | Non-Toxic | inhibition [3]: 7%; inhibition [9]: 5.6%; inhibition [22]: 11.9%; inhibition [24]: 15.3%
CCCCCC(=O)N[C@H]1[C@H](OC(C)=O)O[C@H](COC(C)=O)[C@@H](OC(C)=O)[C@@H]1OC(C)=O | 22.8% | 10.5% | 3.1% | 11.6% | 17.2% | 14.6% | 6.6% | 9.5% | 6.8% | 2.7% | 4.5% | 3% | 0% | 30.3% | 15.2% | 16.9% | 10.8% | 20.5% | 2.2% | Non-Toxic | inhibition [25]: 4%; inhibition [3]: 2.6%; inhibition [26]: 3.5%
COc1ccc(CC(=O)N[C@@H]2[C@@H](O)[C@H](O)[C@@H](CO)O[C@H]2O)cc1 | 3% | 7.5% | – | 3.5% | 2.6% | 10.1% | 20.2% | 0% | 0% | 0% | 3.3% | 0% | 2.9% | 0% | 3% | 0% | 0% | 0% | 0% | Non-Toxic | inhibition [25]: 0.8%; inhibition [26]: 3.2%; inhibition [9]: 6.7%; inhibition [27]: 16%; inhibition [24]: 16.6%
CC(=O)OC[C@H]1O[C@@H](OC(C)=O)[C@H](NC(=O)Cc2ccc(C(F)(F)F)cc2)[C@@H](OC(C)=O)[C@@H]1OC(C)=O | 7% | 9.2% | 5.9% | 11.3% | 61.7% | 13% | 27.2% | 0% | 0% | 0% | 0% | 0% | 0% | 0% | 0% | 0% | 1.1% | 0% | 0.9% | Non-Toxic | inhibition [25]: 20.1%; inhibition [3]: 5.6%; inhibition [26]: 2.5%; inhibition [9]: 8.6%; inhibition [24]: 19.3%
O=C(CCCc1ccccc1)N[C@@H]1[C@@H](O)[C@H](O)[C@@H](CO)O[C@H]1O | 17.4% | 9.9% | – | 76.2% | 85% | 43.4% | 46.7% | 15.8% | 0% | 2.1% | 2% | 2.6% | 0% | 21.2% | 2.7% | 0% | 8.8% | 17.9% | 7.7% | Non-Toxic | inhibition [25]: 38.9%; inhibition [26]: 5.6%; inhibition [9]: 8.7%; inhibition [27]: 4.3%; inhibition [24]: 4.8%
CC(=O)N[C@@H]1[C@@H](O)[C@H](O)[C@@H](CO)O[C@H]1O [N-ACETYLGLUCOSAMINE] | – | 29.6% | 13.6% | 86.5% | 96.1% | 85% | 69.3% | 12.5% | 0% | 0% | 0% | 0% | 2.7% | 0% | 10.3% | 7.8% | 0% | 6.1% | 14.7% | Non-Toxic | inhibition [25]: 81.3%; inhibition [26]: 16.3%; inhibition [9]: 36.2%; inhibition [27]: 18.8%
COc1ccc(CC(=O)N[C@H]2[C@H](OC(C)=O)O[C@H](COC(C)=O)[C@@H](OC(C)=O)[C@@H]2OC(C)=O)cc1 | 18.6% | 9.6% | 17.8% | – | 25.4% | – | 28.7% | 0% | 0% | 0% | 0% | 0% | 3.9% | 0% | 0% | 0% | 0% | 0% | 4.5% | Non-Toxic | inhibition [25]: 0.9%; inhibition [3]: 19.4%; inhibition [26]: 4.2%; inhibition [9]: 6.6%; inhibition [22]: 0.4%; inhibition [24]: 5.6%
O=C(Cc1ccc(C(F)(F)F)cc1)N[C@@H]1[C@@H](O)[C@H](O)[C@@H](CO)O[C@H]1O | 10.6% | 7.1% | 10.6% | 12.8% | – | 10.1% | – | 0% | 5.8% | 0% | 7.8% | 0% | 4.4% | 0% | 2.5% | 0% | 0% | 0% | 1.2% | Non-Toxic | inhibition [25]: 3.3%; inhibition [3]: 10.3%; inhibition [26]: 2.4%; inhibition [9]: 11.4%; inhibition [22]: 6.6%; inhibition [24]: 17.8%
CC(=O)OC[C@H]1O[C@@H](OC(C)=O)[C@H](NC(=O)Cc2c[nH]c3ccccc23)[C@@H](OC(C)=O)[C@@H]1OC(C)=O | 12.5% | 4% | 12.1% | – | 24.2% | – | – | 0% | 4.6% | 0% | 0% | 0% | 0% | 0% | 15.1% | 0% | 1.8% | 0% | 2.8% | Non-Toxic | inhibition [3]: 12.5%; inhibition [22]: 1.5%; inhibition [24]: 0.5%
